Reference: the NIST ThermoML archive (doi:10.1021/acs.jced.8b01095)
± gives the expanded uncertainty stated by the source.

Test: xn = mol fraction of the nth substance listed
Settings: Liquid; for viscosity: 2 kPa, Falling or rolling sphere viscometry; for speed of sound / mass density: 100 kPa; for speed of sound: Single path-length method; for mass density: Vibrating tube method

CNc1ccccc1 [N-methylaniline] + CCCC[n+]1ccn(C)c1.O=S(=O)([N-]S(=O)(=O)C(F)(F)F)C(F)(F)F
Settings	mass density [kg/m3]	speed of sound [m/s]	viscosity [mPa·s]
298.15 K, x2 = 0	982.7 ± 1	1564.5 ± 0.7	1.94 ± 0.62
298.15 K, x2 = 0.0958	1085.92 ± 1	1478.4 ± 0.8	3.78 ± 1.1
298.15 K, x2 = 0.2004	1171.17 ± 1	1416.5 ± 0.8	7.41 ± 1.2
298.15 K, x2 = 0.3061	1237.44 ± 1	1372.1 ± 0.8	10.89 ± 2
298.15 K, x2 = 0.4074	1287.31 ± 1	1337.5 ± 0.9	15.38 ± 2.4
298.15 K, x2 = 0.4939	1321.9 ± 1.1	1312.1 ± 0.9	19.38 ± 2.7
298.15 K, x2 = 0.5905	1352.65 ± 1.1	1286.8 ± 0.9	23.54 ± 3.6
298.15 K, x2 = 0.6834	1377.01 ± 1.1	1267.9 ± 1	28.71 ± 4.2
298.15 K, x2 = 0.7988	1402.4 ± 1.1	1250.4 ± 1	35.25 ± 5.6
298.15 K, x2 = 0.8751	1415.81 ± 1.1	1241 ± 1.1	40.87 ± 6
303.15 K, x2 = 0	978.59 ± 1	1546.1 ± 0.7	1.73 ± 0.62
303.15 K, x2 = 0.0958	1081.63 ± 1	1462.9 ± 0.8	3.32 ± 0.83
303.15 K, x2 = 0.2004	1166.89 ± 1	1402.2 ± 0.8	6.34 ± 1.1
303.15 K, x2 = 0.3061	1233.05 ± 1	1358.7 ± 0.8	9.2 ± 1.5
303.15 K, x2 = 0.4074	1282.85 ± 1	1324.7 ± 0.9	12.87 ± 2.1
303.15 K, x2 = 0.4939	1317.38 ± 1.1	1299.7 ± 0.9	16.31 ± 2.5
303.15 K, x2 = 0.5905	1348.07 ± 1.1	1275.1 ± 0.9	19.68 ± 3
303.15 K, x2 = 0.6834	1372.38 ± 1.1	1256.5 ± 1	23.79 ± 3.7
303.15 K, x2 = 0.7988	1397.7 ± 1.1	1239.1 ± 1	29.03 ± 4.6
303.15 K, x2 = 0.8751	1411.09 ± 1.1	1229.8 ± 1.1	33.45 ± 5.4
308.15 K, x2 = 0	974.47 ± 1	1528.3 ± 0.7	1.55 ± 0.61
308.15 K, x2 = 0.0958	1077.34 ± 1	1447.9 ± 0.8	2.93 ± 0.77
308.15 K, x2 = 0.2004	1162.61 ± 1	1388 ± 0.8	5.47 ± 0.99
308.15 K, x2 = 0.3061	1228.67 ± 1	1345.4 ± 0.8	7.87 ± 1.2
308.15 K, x2 = 0.4074	1278.4 ± 1	1312.1 ± 0.9	10.91 ± 1.7
308.15 K, x2 = 0.4939	1312.87 ± 1.1	1287.6 ± 0.9	13.85 ± 2.1
308.15 K, x2 = 0.5905	1343.49 ± 1.1	1263.3 ± 0.9	16.65 ± 2.4
308.15 K, x2 = 0.6834	1367.74 ± 1.1	1245 ± 1	20 ± 2.9
308.15 K, x2 = 0.7988	1393.02 ± 1.1	1228.1 ± 1	24.27 ± 3.6
308.15 K, x2 = 0.8751	1406.37 ± 1.1	1218.9 ± 1.1	27.84 ± 4.2
313.15 K, x2 = 0	970.36 ± 1	1511.5 ± 0.7	1.4 ± 0.61
313.15 K, x2 = 0.0958	1073.05 ± 1	1433.7 ± 0.8	2.61 ± 0.73
313.15 K, x2 = 0.2004	1158.33 ± 1	1373.8 ± 0.8	4.76 ± 0.89
313.15 K, x2 = 0.3061	1224.28 ± 1	1332.5 ± 0.8	6.8 ± 1.1
313.15 K, x2 = 0.4074	1273.93 ± 1	1299.9 ± 0.9	9.36 ± 1.4
313.15 K, x2 = 0.4939	1308.35 ± 1.1	1275.7 ± 0.9	11.86 ± 1.7
313.15 K, x2 = 0.5905	1338.91 ± 1.1	1251.8 ± 0.9	14.24 ± 2
313.15 K, x2 = 0.6834	1363.11 ± 1.1	1233.8 ± 1	17.04 ± 2.4
313.15 K, x2 = 0.7988	1388.31 ± 1.1	1217.1 ± 1	20.57 ± 2.9
313.15 K, x2 = 0.8751	1401.64 ± 1.1	1208.1 ± 1.1	23.51 ± 3.3
318.15 K, x2 = 0	966.24 ± 1	1492.8 ± 0.7	1.27 ± 0.61
318.15 K, x2 = 0.0958	1068.75 ± 1	1417.6 ± 0.8	2.34 ± 0.7
318.15 K, x2 = 0.2004	1154.04 ± 1	1359.9 ± 0.8	4.17 ± 0.82
318.15 K, x2 = 0.3061	1219.9 ± 1	1319.4 ± 0.8	5.94 ± 0.95
318.15 K, x2 = 0.4074	1269.47 ± 1	1287.4 ± 0.9	8.12 ± 1.2
318.15 K, x2 = 0.4939	1303.83 ± 1.1	1263.6 ± 0.9	10.24 ± 1.5
318.15 K, x2 = 0.5905	1334.33 ± 1.1	1240 ± 0.9	12.3 ± 1.7
318.15 K, x2 = 0.6834	1358.47 ± 1.1	1222.4 ± 1	14.69 ± 1.9
318.15 K, x2 = 0.7988	1383.61 ± 1.1	1206.1 ± 1	17.64 ± 2.3
318.15 K, x2 = 0.8751	1396.92 ± 1.1	1197.1 ± 1.1	20.12 ± 2.6
323.15 K, x2 = 0	962.13 ± 1	1476.2 ± 0.7	1.16
323.15 K, x2 = 0.0958	1064.46 ± 1	1403.2 ± 0.8	2.11 ± 0.65
323.15 K, x2 = 0.2004	1149.76 ± 1	1346.5 ± 0.8	3.68 ± 0.78
323.15 K, x2 = 0.3061	1215.52 ± 1	1306.7 ± 0.8	5.23 ± 0.83
323.15 K, x2 = 0.4074	1265 ± 1	1275.5 ± 0.9	7.1 ± 1
323.15 K, x2 = 0.4939	1299.32 ± 1.1	1252 ± 0.9	8.9 ± 1.3
323.15 K, x2 = 0.5905	1329.74 ± 1.1	1228.6 ± 0.9	10.72 ± 1.5
323.15 K, x2 = 0.6834	1353.84 ± 1.1	1211.5 ± 1	12.79 ± 1.8
323.15 K, x2 = 0.7988	1378.91 ± 1.1	1195.2 ± 1	15.29 ± 2
323.15 K, x2 = 0.8751	1392.22 ± 1.1	1186.4 ± 1.1	17.41 ± 2.5
